Reference: US7445764B1, “Carrier-drug conjugate” (priority 1999, dated 2008)

Legend:
[1] = system: RENCA, renal cell carcinoma; conditions: female, Balb/c, mouse, in vivo
Description: (§1) Animals: Balb/c mice, female; tumor: RENCA, renal cell carcinoma; therapy: day (d) 10, 14, 18, 21 intravenous (i.v.); end of trial: d 25.
(§2) The dose is relative to the quantity of doxorubicin present.

[2] = system: RENCA, renal cell carcinoma; test: RENCA (renal cell carcinoma) model, antitumoral action at approximately equitoxic dose; conditions: RENCA in Balb/c mice
Description: as §1, §2

[3] = target: HSA-Cys^34-2 (conjugate of DTT-treated human serum albumin with doxorubicin-maleinimide-peptide derivative 2) (UniProt P02768)
Sequence of HSA-Cys^34-2 (conjugate of DTT-treated human serum albumin with doxorubicin-maleinimide-peptide derivative 2) (P02768 whole entry, looked up, tested part not stated): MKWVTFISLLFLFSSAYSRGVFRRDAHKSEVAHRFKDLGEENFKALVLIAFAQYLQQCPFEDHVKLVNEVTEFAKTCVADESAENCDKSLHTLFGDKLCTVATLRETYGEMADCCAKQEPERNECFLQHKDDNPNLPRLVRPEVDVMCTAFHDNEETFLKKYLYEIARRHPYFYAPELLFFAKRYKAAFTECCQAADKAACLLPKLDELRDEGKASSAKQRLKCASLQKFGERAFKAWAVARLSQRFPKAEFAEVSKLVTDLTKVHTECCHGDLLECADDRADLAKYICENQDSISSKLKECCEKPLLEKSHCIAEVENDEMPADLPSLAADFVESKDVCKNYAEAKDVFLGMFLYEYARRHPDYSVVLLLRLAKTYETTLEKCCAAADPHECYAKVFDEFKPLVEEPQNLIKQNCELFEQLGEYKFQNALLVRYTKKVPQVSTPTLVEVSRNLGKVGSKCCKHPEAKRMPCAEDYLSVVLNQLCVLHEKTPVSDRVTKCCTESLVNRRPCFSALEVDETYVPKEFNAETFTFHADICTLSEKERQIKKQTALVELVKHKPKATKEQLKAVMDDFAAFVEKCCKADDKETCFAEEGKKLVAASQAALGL

Compound | Mortality (d) [1] | Visible renal tumors ([2]; FIG. 3A) | Number of pulmonary metastases, average ([2]; FIG. 3B) [metastases per mouse] | Complete remission ([2]; i.v. d 10, 14, 18, 21, end of trial d 25, approximately equitoxic doses) | liberation of DOXO-Gln-Gly-Ala-Ile due to cleavage with MMP 9 (HPLC gel chromatography, t=0 against t=30 min) [3]
COc1cccc2c1C(=O)c1c(O)c3c(c(O)c1C2=O)C[C@@](O)(C(=O)CO)C[C@@H]3O[C@H]1C[C@H](N)[C@H](O)[C@H](C)O1 [Doxorubicin, doxorubicin] | 1 | plainly visible renal tumors were observed in all animals | ~100 | no complete remissions | 
matrix metalloprotease MMP 9 (trypsine/aprotinine-activated, from Calbiochem, Germany) |  |  |  |  | The liberation of DOXO-Gln-Gly-Ala-Ile due to cleavage with MMP 9 was confirmed by HPLC gel chromatography
